{
  "source": "patent US20260124213A1",
  "about": "“STAPHYLOCOCCUS AUREUS PBP4 INHIBITORS AND METHOD OF USE” (UNIVERSITY OF ROCHESTER, priority 2022, published 2026)",
  "key": {"[1]": {"molecular_target": "recombinant B. subtilis PBP4 (Bacillus subtilis, UniProt P40750)", "sequence (P40750 22-624)": "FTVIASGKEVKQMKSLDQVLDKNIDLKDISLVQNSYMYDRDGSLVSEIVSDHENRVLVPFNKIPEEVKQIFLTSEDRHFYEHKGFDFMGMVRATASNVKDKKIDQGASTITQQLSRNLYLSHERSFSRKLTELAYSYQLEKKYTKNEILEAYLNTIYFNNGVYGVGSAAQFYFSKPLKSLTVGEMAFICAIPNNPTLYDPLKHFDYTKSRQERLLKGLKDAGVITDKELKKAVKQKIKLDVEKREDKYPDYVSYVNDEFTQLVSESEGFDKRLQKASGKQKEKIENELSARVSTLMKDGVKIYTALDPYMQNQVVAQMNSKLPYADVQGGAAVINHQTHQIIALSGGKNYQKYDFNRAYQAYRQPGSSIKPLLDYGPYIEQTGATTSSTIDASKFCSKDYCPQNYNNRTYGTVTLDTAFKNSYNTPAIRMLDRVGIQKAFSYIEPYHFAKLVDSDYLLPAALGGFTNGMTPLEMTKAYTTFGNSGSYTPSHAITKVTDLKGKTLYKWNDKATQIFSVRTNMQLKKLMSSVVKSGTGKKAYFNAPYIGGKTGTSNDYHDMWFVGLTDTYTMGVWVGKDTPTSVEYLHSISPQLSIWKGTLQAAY", "test": "BOCILLIN FL fluorescence polarization binding competition", "protocol": "PBP4 BOCILLIN™ FL Binding Competition Assays. The ability of putative PBP4 inhibitors to impact the active site of recombinant PBP4 was assessed using two previously established BOCILLIN™-FL Penicillin (Penicillin V conjugated to BODIPY fluorescent dye) binding assays. First, fluorescence polarization assays were performed as previously described. Briefly, the indicated amount of the putative PBP4 inhibitor or control antibiotic was incubated with 1 μM recombinant B. subtilis PBP4 or S. aureus PBP2a in potassium phosphate buffer (40 mM K2HPO4 and 10 mM KH2PO4) for 1 hour in black 96-well microtiter plates (Corning Life Sciences®, Corning, NY). Following incubation, 1 μM (final concentration) BOCILLIN™ FL penicillin was added, and the mixture was incubated for 30 minutes. BOCILLIN™ FL fluorescence polarization was measured at (495nm excitation and 545nm emission) in a SpectraMax® M5 multimode plate reader (Molecular Devices®, San Jose, CA). All assays were repeated at least 8 times, averaged, and values falling outside of 2 standard deviations were considered outliers. Resulting data was plotted as percentage BOCILLIN™ FL binding inhibition=(T/U)×100; T=FL polarization of ((PBP4+BOCILLIN™ FL)−(PBP4+BOCILLIN™ FL+inhibitor compound)), U=FL polarization of ((PBP4+BOCILLIN™ FL)−(BOCILLIN™ FL)). Second, gel electrophoresis and fluorescence detection were used to measure BOCILLIN™ FL labeling of PBP4 treated with the known PBP4 inhibitor cefoxitin (positive control), kanamycin (negative control) or 9314848 (test compound). Briefly, 1 μM of recombinant PBP4 was mixed with 0, 50, 500, 2000, or 5000 μM 9314848 or control antibiotic in 50 mM phosphate buffer (pH 7.4) and incubated at 37° C. for 30 minutes. Next 40 μM of BOCILLIN™ FL was added to the reaction mixture and incubated for an additional 30 minutes at 37° C. Reactions were stopped by adding 5×SDS-PAGE gel loading dye, heated at 100° C. for 3 minutes and separated by electrophoresis in 12% SDS-PAGE (2 h, 120 Volts). BOCILLIN™ FL labeled PBP4 was imaged at λ=365 nm using a BioRad© Gel Doc EZ™ Imaging system and the gel was then subsequently stained with Bio-safe Coomassie Brilliant Blue stain (BioRad©, Hercules, CA, USA) to measure the amount of protein present in each reaction condition and analyzed using NIH-ImageJ software. The percent BOCILLIN™ FL binding was calculated by first normalizing the protein present in each reaction condition to that of untreated control and subsequently applying each reaction's protein normalization factor to each reaction's fluorescent signal. The percentage BOCILLIN™ FL binding inhibition was then calculated as the normalized band intensity of antibiotic/compound treated sample as compared to control sample (PBP4+BOCILLIN™ FL in the absence of compound).\nTo more directly evaluate whether 9314848 is likely to affect PBP4 function, the compound's ability to bind recombinant PBP4 was measured using BOCILLIN™ FL fluorescence polarization displacement assays. The premise for the assay is that the fluorescence polarization of the fluorescently labeled β-lactam, penicillin V (BOCILLIN™ FL), will increase upon binding to its cognate target (i.e., PBP4). Further, compounds that bind PBP4 and inhibit its function would impede BOCILLIN™ FL binding thereby allowing assessment of the protein binding affinity of 9314848 using a simple fluorescence reduction assay."}, "MRSA strain AH-2204": {"tested_on": "MRSA strain AH-2204", "test": "Broth microdilution antibiotic potentiation", "format": "cell-based, Staphylococcus aureus", "conditions": "Staphylococcus aureus, MRSA", "protocol": "(§1) Broth Microdilution Method for Antibiotic Potentiation with MRSA Strains. Bacteria were cultured for 6 hours in CAMHB and sub-cultured to 5×10^5 CFU/mL in CAMHB. Subcultures were aliquoted (4 mL) into culture tubes and then inoculated with compound from 10 mM or 100 mM stock in DMSO to the desired concentration. […]. Bacteria treated with antibiotic alone served as the control. Samples from the secondary culture tubes were then aliquoted (200 μL) into the first row of wells of a 96-well microtiter plate. Rows 2-11 were filled (100 μL) with the remaining 4 mL of bacterial subculture containing the adjuvant. Row 12 was filled (100 μL) with uninoculated media. From row 1, 100 μL was transferred to row two and mixed 5-8 times before being transferred to row 3. This procedure was used to serial dilute the rest of the rows through 10. The microtiter plate was then covered in Press 'n Seal and incubated at 37° C."}, "MRSA strain AH-1263": {"tested_on": "MRSA strain AH-1263", "test": "Broth microdilution antibiotic potentiation", "format": "cell-based, Staphylococcus aureus", "conditions": "for MIC: Staphylococcus aureus, MRSA", "protocol": "as §1"}, "[2]": {"tested_on": "MRSA strain ATCC BAA-1556", "test": "Broth microdilution antibiotic potentiation", "format": "cell-based, Staphylococcus aureus", "conditions": "for MIC: Staphylococcus aureus", "protocol": "as §1"}, "recombinant PBP4": {"tested_on": "recombinant PBP4", "test": "BOCILLIN FL labeling of PBP4, gel electrophoresis and fluorescence detection", "format": "binding", "conditions": "kanamycin 2000 μM or 5000 μM", "protocol": "PBP4 BOCILLIN™ FL Binding Competition Assays. The ability of putative PBP4 inhibitors to impact the active site of recombinant PBP4 was assessed using two previously established BOCILLIN™-FL Penicillin (Penicillin V conjugated to BODIPY fluorescent dye) binding assays. First, fluorescence polarization assays were performed as previously described. Briefly, the indicated amount of the putative PBP4 inhibitor or control antibiotic was incubated with 1 μM recombinant B. subtilis PBP4 or S. aureus PBP2a in potassium phosphate buffer (40 mM K2HPO4 and 10 mM KH2PO4) for 1 hour in black 96-well microtiter plates (Corning Life Sciences®, Corning, NY). […] BOCILLIN™ FL fluorescence polarization was measured at (495nm excitation and 545nm emission) in a SpectraMax® M5 multimode plate reader (Molecular Devices®, San Jose, CA). […] Second, gel electrophoresis and fluorescence detection were used to measure BOCILLIN™ FL labeling of PBP4 treated with the known PBP4 inhibitor cefoxitin (positive control), kanamycin (negative control) or 9314848 (test compound). […] BOCILLIN™ FL labeled PBP4 was imaged at λ=365 nm using a BioRad© Gel Doc EZ™ Imaging system and the gel was then subsequently stained with Bio-safe Coomassie Brilliant Blue stain (BioRad©, Hercules, CA, USA) to measure the amount of protein present in each reaction condition and analyzed using NIH-ImageJ software. […]"}, "MRSA strain BAA-1685": {"tested_on": "MRSA strain BAA-1685", "test": "Broth microdilution antibiotic potentiation", "format": "cell-based", "conditions": "Staphylococcus aureus, read-out: Oxacillin MIC, no compound (—)", "protocol": "as §1"}, "MRSA strain BAA-44": {"tested_on": "MRSA strain BAA-44", "test": "Broth microdilution antibiotic potentiation", "format": "cell-based", "conditions": "Staphylococcus aureus, read-out: Oxacillin MIC, no compound (—)", "protocol": "as §1"}, "MRSA strain BAA-811": {"tested_on": "MRSA strain BAA-811", "test": "Broth microdilution antibiotic potentiation", "format": "cell-based", "conditions": "Staphylococcus aureus, read-out: Oxacillin MIC, no compound (—)", "protocol": "as §1"}, "MRSA strain 700699": {"tested_on": "MRSA strain 700699", "test": "Broth microdilution antibiotic potentiation", "format": "cell-based", "conditions": "Staphylococcus aureus, read-out: Oxacillin MIC, no compound (—)", "protocol": "as §1"}, "MRSA strain BAA-1770": {"tested_on": "MRSA strain BAA-1770", "test": "Broth microdilution antibiotic potentiation", "format": "cell-based, Staphylococcus aureus", "conditions": "Staphylococcus aureus, read-out: Oxacillin MIC, no compound (—)", "protocol": "(§2) Broth Microdilution Method for Antibiotic Potentiation with MRSA Strains. Bacteria were cultured for 6 hours in CAMHB and sub-cultured to 5×10^5 CFU/mL in CAMHB. Subcultures were aliquoted (4 mL) into culture tubes and then inoculated with compound from 10 mM or 100 mM stock in DMSO to the desired concentration. […] Bacteria treated with antibiotic alone served as the control. Samples from the secondary culture tubes were then aliquoted (200 μL) into the first row of wells of a 96-well microtiter plate. Rows 2-11 were filled (100 μL) with the remaining 4 mL of bacterial subculture containing the adjuvant. Row 12 was filled (100 μL) with uninoculated media. From row 1, 100 μL was transferred to row two and mixed 5-8 times before being transferred to row 3. This procedure was used to serial dilute the rest of the rows through 10. The microtiter plate was then covered in Press 'n Seal and incubated at 37° C."}, "MRSA strain 700789": {"tested_on": "MRSA strain 700789", "test": "Broth microdilution antibiotic potentiation", "format": "cell-based", "conditions": "Staphylococcus aureus, read-out: Oxacillin MIC, no compound (—)", "protocol": "as §2"}, "MRSA strain 43300": {"tested_on": "MRSA strain 43300", "test": "Broth microdilution antibiotic potentiation", "format": "cell-based", "conditions": "Staphylococcus aureus, read-out: Oxacillin MIC, no compound (—)", "protocol": "as §2"}},
  "note": "Values joined by “and” are separate entries in the source; they are usually repeats but may differ in a detail not shown here. Equal entries are not always repeated. Where two headings read alike, the source gives them in different places.",
  "data": [
    {"smiles": "CC1(C)S[C@@H]2[C@H](NC(=O)[C@H](N)c3ccccc3)C(=O)N2[C@H]1C(=O)O", "note": "[Ampicillin, ampicillin]", "values": [
      {"measurement": "Effect of preincubation on BOCILLIN FL binding to PBP4 (fluorescence polarization)", "setting": "[1]", "result": "limited BOCILLIN™ FL binding"},
      {"measurement": "Concentration of maximum BOCILLIN FL binding inhibition", "setting": "[1]; dose-response 0-50 μM", "result": "25 to 50", "unit": "µM"},
      {"measurement": "MIC", "setting": "MRSA strain AH-2204; AH-2204, read-out: Ampicillin MIC, no compound (—)", "result": 2, "unit": "µg/mL"},
      {"measurement": "MIC", "setting": "MRSA strain AH-1263; AH-1263, read-out: Ampicillin MIC, no compound (—)", "result": 16, "unit": "µg/mL"},
      {"measurement": "MIC", "setting": "[2]; ATCC BAA-1556, read-out: Ampicillin MIC, no compound (—)", "result": 16, "unit": "µg/mL"},
      {"measurement": "Effect of preincubation on BOCILLIN FL labeling of PBP4 (gel)", "setting": "recombinant PBP4", "result": "reduced the protein's ability to bind the fluorescent substrate in a dose-dependent manner"}
    ]},
    {"smiles": "CO[C@@]1(NC(=O)Cc2cccs2)C(=O)N2C(C(=O)O)=C(COC(N)=O)CS[C@@H]21", "note": "[Cefoxitin, cefoxitin]", "values": [
      {"measurement": "MIC", "setting": "MRSA strain AH-2204; AH-2204, read-out: Cefoxitin MIC, no compound (—)", "result": 2, "unit": "µg/mL"},
      {"measurement": "MIC", "setting": "MRSA strain AH-1263; AH-1263, read-out: Cefoxitin MIC, no compound (—)", "result": 4, "unit": "µg/mL"},
      {"measurement": "MIC", "setting": "[2]; ATCC BAA-1556, read-out: Cefoxitin MIC, no compound (—)", "result": 8, "unit": "µg/mL"},
      {"measurement": "Effect of preincubation on BOCILLIN FL labeling of PBP4 (gel)", "setting": "recombinant PBP4", "result": "reduced the protein's ability to bind the fluorescent substrate in a dose-dependent manner"}
    ]},
    {"smiles": "Cc1onc(-c2ccccc2)c1C(=O)N[C@@H]1C(=O)N2[C@@H]1SC(C)(C)[C@@H]2C(=O)O", "note": "[Oxacillin, oxacillin]", "values": [
      {"measurement": "MIC", "setting": "MRSA strain AH-2204; read-out: Oxacillin MIC, no compound (—), AH-2204", "result": 32, "unit": "µg/mL"},
      {"measurement": "Oxacillin MIC, no compound (—)", "setting": "MRSA strain AH-1263; AH-1263", "result": 32, "unit": "µg/mL"},
      {"measurement": "MIC", "setting": "MRSA strain AH-1263; read-out: Oxacillin MIC, no compound (—), AH-1263", "result": 16, "unit": "µg/mL"},
      {"measurement": "Oxacillin MIC, no compound (—)", "setting": "[2]; ATCC BAA-1556", "result": "32 µg/mL and 16 µg/mL"},
      {"measurement": "MIC", "setting": "[2]; read-out: Oxacillin MIC, no compound (—), ATCC BAA-1556", "result": 32, "unit": "µg/mL"},
      {"measurement": "MIC", "setting": "MRSA strain BAA-1685", "result": 64, "unit": "µg/mL"},
      {"measurement": "MIC", "setting": "MRSA strain BAA-44", "result": 16, "unit": "µg/mL"},
      {"measurement": "MIC", "setting": "MRSA strain BAA-811", "result": 256, "unit": "µg/mL"},
      {"measurement": "MIC", "setting": "MRSA strain 700699", "result": 16, "unit": "µg/mL"},
      {"measurement": "MIC", "setting": "MRSA strain BAA-1770", "result": 512, "unit": "µg/mL"},
      {"measurement": "MIC", "setting": "MRSA strain 700789", "result": 256, "unit": "µg/mL"},
      {"measurement": "MIC", "setting": "MRSA strain 43300", "result": 512, "unit": "µg/mL"}
    ]}
  ]
}
